The text below walks through data of PMC3538380 (Stem cells (Dayton, Ohio), 2013).

Assay [1] deals with purified GAPDH enzyme from rabbit muscle (Oryctolagus cuniculus, UniProt P46406). In words: GAPDH enzymatic assay, NADH fluorescence. The format is biochemical.
Assay [2] addresses GAPDH in GSC11 cells (Homo sapiens, UniProt P04406). In words: GAPDH activity in lysate of treated cells, NADH fluorescence. The class given is cell-based.

Structures are written as SMILES. pIC50: −log10 of the molar value.

Chain of purified GAPDH enzyme from rabbit muscle (P46406 whole entry): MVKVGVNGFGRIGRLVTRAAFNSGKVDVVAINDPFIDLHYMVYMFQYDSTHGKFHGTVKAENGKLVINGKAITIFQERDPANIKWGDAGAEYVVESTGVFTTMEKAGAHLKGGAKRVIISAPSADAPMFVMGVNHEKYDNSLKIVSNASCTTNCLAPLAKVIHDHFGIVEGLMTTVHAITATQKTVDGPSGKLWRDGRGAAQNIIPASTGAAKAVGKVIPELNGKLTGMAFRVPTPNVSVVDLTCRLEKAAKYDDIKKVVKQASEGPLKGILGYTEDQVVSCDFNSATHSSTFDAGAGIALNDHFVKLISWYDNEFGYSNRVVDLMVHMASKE
Chain of GAPDH in GSC11 cells (P04406 2-335): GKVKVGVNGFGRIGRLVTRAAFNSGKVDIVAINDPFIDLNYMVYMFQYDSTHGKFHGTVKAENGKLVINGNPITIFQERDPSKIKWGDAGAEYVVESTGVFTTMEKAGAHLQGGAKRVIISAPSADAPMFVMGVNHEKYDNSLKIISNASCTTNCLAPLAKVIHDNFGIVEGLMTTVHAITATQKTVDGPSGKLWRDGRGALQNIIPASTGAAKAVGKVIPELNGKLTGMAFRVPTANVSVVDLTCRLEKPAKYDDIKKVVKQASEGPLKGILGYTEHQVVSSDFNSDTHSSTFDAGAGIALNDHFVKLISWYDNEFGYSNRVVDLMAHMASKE

For `CCCOC(=O)C(=O)CBr` [3-BrOP, 3-bromo-2-oxopropionate-1-propyl ester], the pIC50 in assay [1] is ~5.00. Besides, in assay [2] (read-out: % inhibition at 10 μM), the inhibition at 10 µM was ~60%.
On to `O=NN(CCCl)C(=O)NCCCl` [BCNU], for which, in assay [1], the negative-log IC50 (pIC50) was ~3.70. In addition, in assay [2] (read-out: % inhibition at 200 μM), the inhibition at 200 µM is ~60%.
